The subject of experiment [1] is Acinetobacter baumannii strain 2208 (ATCC 19606). The experiment in a line: bacterial proliferation assay, A. baumannii. In kind it is cell-based. Particulars: ATCC19606, read-out: Bacterial Proliferation EC50 A. baumannii. As for the experimental part:
(§1) All compounds were evaluated for inhibiting the proliferation of E. coli and each of the ESKAPE bacteria. Results presented represent the averages of EC50 values obtained from at least four replicates. Evaluating compounds for inhibition of bacterial cell proliferation.
(§2) Growth Media: E. coli were grown with LB medium and all ESKAPE bacteria were grown in Brain Heart Infusion (BHI) medium (Becton, Dickinson and Company), with all liquid cultures supplemented with 25 mg/L Ca^2+ and 12.5 mg/L Mg^2+ to mimic physiological free concentrations of these cations. A 10 mg/mL Ca^2+ stock solution was prepared by dissolving 1.84 g of CaCl2.2H2O in 50 mL of deionized water, and a 10 mg/mL Mg^2+ stock solution was prepared by dissolving 4.18 g of MgCl2.6H2O in 50 mL deionized water—filter sterilized using 0.2 μm cellulose-acetate filters. 2.5 mL of the sterile 10 mg/mL Ca^2+ stock and 1.25 mL of the sterile 10 mg/mL Mg^2+ stock solutions were added per 1 L of autoclaved LB or BHI media to obtain 25 mg/L Ca^2+ and 12.5 mg/L Mg^2+ ions, respectively.
(§3) General Assay Protocol: Stock bacterial cultures were streaked onto LB or BHI agar plates and grown overnight at 37° C. Fresh aliquots of cation supplemented media were inoculated with single bacterial colonies and the cultures were grown overnight at 37° C. with shaking (240 rpm). The following morning, cultures were diluted 10-fold into fresh media and grown at 37° C. until bacteria had reached mid-log phase growth (OD600˜0.4-0.6). The cultures were then diluted into fresh media to achieve final OD600 readings of 0.017. Aliquots of these diluted cultures (30 μL) were added to clear, flat-bottom 384-well polystyrene plates that were previously stamped with 0.5 μL of test compounds in 20 μL of media (yielding initial OD600=0.01 bacterial cultures). All compounds were tested in dose-response with concentration ranges during the proliferation assays from 100 μM to 46 nM (3-fold dilution series). A second set of baseline control plates were prepared analogously, but without any bacteria added, to correct for possible compound absorbance and/or precipitation. […] Plates were then read at 600 nm using a Molecular Devices SpectraMax Plus384 microplate reader. […] Results presented represent the averages of EC50 values obtained from at least four replicates.
(§4) Evaluating analogs for inhibiting the growth of E. coli and the ESKAPE bacteria. Analogs were initially tested for antibacterial efficacy against representative strains of antibiotic-sensitive E. coli and the ESKAPE bacteria. To determine compound efficacy, bacterial proliferation assays were carried out in liquid media culture supplemented with physiological concentrations of free calcium and magnesium cations. For these assays, bacterial cultures (OD600=0.01) were exposed to test compounds in 8-point, 3-fold dilution series (100 μM to 46 nM concentration range), in 384-well plates. After addition of compounds to cultures, the plates were sealed with Breathe-Easy gas permeable membranes and allowed to grow to mid-log phase (OD600˜0.4-0.6), whereupon final OD600 readings were taken to assess for bacterial growth and inhibition.

The target in experiment [2] is T1, E. coli GroEL/ES (Escherichia coli, UniProt P0A6F5).
T1 construct: made in house; host or cells: GroEL in NEB 5-alpha E. coli; GroES in E. coli BL21 (DE3)
T1 sequence (P0A6F5 2-548): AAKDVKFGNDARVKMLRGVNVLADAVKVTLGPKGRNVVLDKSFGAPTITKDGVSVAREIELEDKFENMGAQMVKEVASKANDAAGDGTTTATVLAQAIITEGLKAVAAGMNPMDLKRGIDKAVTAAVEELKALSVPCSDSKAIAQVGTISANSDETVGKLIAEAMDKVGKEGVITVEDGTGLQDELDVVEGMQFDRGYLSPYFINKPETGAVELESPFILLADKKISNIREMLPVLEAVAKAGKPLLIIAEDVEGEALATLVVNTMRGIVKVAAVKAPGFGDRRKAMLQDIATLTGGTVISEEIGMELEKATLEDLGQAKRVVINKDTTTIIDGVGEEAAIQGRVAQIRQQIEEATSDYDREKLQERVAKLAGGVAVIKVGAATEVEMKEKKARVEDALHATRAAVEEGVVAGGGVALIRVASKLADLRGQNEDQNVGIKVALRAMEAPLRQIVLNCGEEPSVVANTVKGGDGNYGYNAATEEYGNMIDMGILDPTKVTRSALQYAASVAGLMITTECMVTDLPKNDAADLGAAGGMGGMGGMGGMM
The experiment in a line: GroEL/ES-mediated dRho refolding assay. In kind it is biochemical. The method, then:
Evaluating compounds for inhibition in the GroEL/ES-mediated dRho refolding assay. Reagent preparation: For this assay, five primary reagent stocks were prepared: 1) GroEL/ES-dRho binary complex stock; 2) ATP initiation stock; 3) thiocyanate enzymatic assay stock; 4) formaldehyde quench stock; 5) ferric nitrate reporter stock. Denatured rhodanese (dRho) was prepared by 3-fold dilution of rhodanese (Roche product #R^1756, diluted to 10 mg/mL with H2O) with denaturant buffer (12 M Urea, 50 mM Tris-HCl, pH 7.4, and 10 mM DTT). Rhodanese was completely denatured by incubating at room temperature for >45 min. The binary complex solution was prepared by slowly adding the dRho stock to a stirring stock of concentrated GroEL in modified folding buffer (50 mM Tris-HCl, pH 7.4, 50 mM KCl, 10 mM MgCl2, 5 mM Na2S2O3, and 1 mM DTT). The solution was centrifuged at 16,000×g for 5 minutes, and the supernatant was collected and added to a solution of GroES in modified folding buffer to give final protein concentrations of 100 nM GroEL, 120 nM GroES, and 80 nM dRho. The binary complex stock was prepared immediately prior to use. For the ATP initiation stock, ATP solid was diluted into modified folding buffer to a final concentration of 2.0 mM. The thiocyanate enzymatic assay stock was prepared to contain 70 mM KH2PO4, 80 mM KCN, and 80 mM Na2S2O3 in water. The formaldehyde quench solution contained 30% formaldehyde in water.
Assay Protocol: First, 10 μL aliquots of the GroEL/ES-dRho complex stock were dispensed into clear, flat-bottom 384-well polystyrene plates. […] After incubating for 40 minutes at 37° C. for the refolding cycle, 30 μL of the thiocyanate enzymatic assay stock was added and incubated for 60 min at room temperature for the refolded rhodanese enzymatic reporter reaction. The reporter reaction was quenched by adding 10 μL of the formaldehyde quench stock, and then 40 μL of the ferric nitrate reporter stock was added to quantify the amount of thiocyanate produced during the enzymatic reporter reaction, which is proportional to the amount of dRho refolded by GroEL/ES. After incubating at room temperature for 15 min, the absorbance by Fe(SCN)3 was measured at 460 nm using a Molecular Devices SpectraMax Plus384 microplate reader. A second set of baseline control plates were prepared analogously, but without GroEL/ES-dRho protein binary solution, to correct for possible interference from compound absorbance or turbidity. […] Results presented represent the averages of IC50 values obtained from at least four replicates.
Evaluating compounds for inhibition in the GroEL/ES-mediated dRho refolding assay. All compounds were evaluated for inhibiting E. coli GroEL/ES-mediated refolding of the denatured Rho reporter enzyme as per our previously reported procedure. Results presented represent the averages of IC50 values obtained from at least four replicates.

In experiment [3] the test system is Staphylococcus aureus strain Seattle 1945 (ATCC #25923). The experiment in a line: bacterial proliferation assay, S. aureus. In kind it is cell-based. The following applies: read-out: Bacterial Proliferation EC50 S. aureus. The method, then: as §1, §2, §3, §4
The subject of experiment [4] is Pseudomonas aeruginosa strain NCTC 10332 (ATCC #10145). The experiment in a line: bacterial proliferation assay, P. aeruginosa. In kind it is cell-based. The following applies: read-out: Bacterial Proliferation EC50 P. aeruginosa. The method, then: as §1, §2, §3, §4
For experiment [5], the system named is Enterococcus faecium strain NCTC 7171 (ATCC #19434). The experiment in a line: bacterial proliferation assay, E. faecium. In kind it is cell-based. The following applies: read-out: Bacterial Proliferation EC50 E. faecium. As for the experimental part: as §1, §2, §3, §4
[6] abbreviates: Staphylococcus aureus, ATCC25923.

The structures appear in SMILES notation. pEC50, pIC50: −log10 of the molar value. Read-outs that look alike come from different tables or passages of the source.

For `O=C(N/N=C/c1ccc(O)c2ncccc12)c1ccccc1` [Compound 5, N′-((8-hydroxyquinolin-5-yl)methylene)benzohydrazide], the pEC50 is 4.25 in experiment [1], 4.16 in experiment [3] (setting [6]), under 4.00 in experiment [4] and under 4.00 in experiment [5]. This molecule had a pIC50 in experiment [2] of 3.75.
Take `COc1ccc(C(=O)N/N=C/c2ccccc2)cc1` [Compound 37, N′-benzylidene-4-methoxybenzohydrazide]: the pEC50 in experiment [1], in experiment [3] (setting [6]), in experiment [4] and in experiment [5] was under 4.00 each time. Also, the pIC50 in experiment [2] is under 3.60.
Regarding `O=C(N/N=C/c1ccc([N+](=O)[O-])o1)c1cccc(Oc2ccccc2)c1` [Compound 24, N′-((5-nitrofuran-2-yl)methylene)-3-phenoxybenzohydrazide], the pEC50 in experiment [1] is under 4.00; in experiment [3] (setting [6]), 5.46; in experiment [4], under 4.00; in experiment [5], 4.96. This molecule also gave a pIC50 in experiment [2] of 4.30.
Take `CN(C)c1ccc(C(=O)N/N=C/c2ccc([N+](=O)[O-])o2)cc1` [Compound 21, 4-(dimethylamino)-N′-((5-nitrofuran-2-yl)methylene)benzohydrazide]: the pEC50 in experiment [1] is under 4.00; in experiment [3] (setting [6]), 4.47; in experiment [4], under 4.00; in experiment [5], under 4.00. Further, the pIC50 in experiment [2] (read-out: GroEL/ES-dRho Refolding IC50) was 4.59.
`O=C(N/N=C/c1ccc([N+](=O)[O-])o1)c1ccncc1` [Compound 19, N′-((5-nitrofuran-2-yl)methylene)isonicotinohydrazide]: the pEC50 in experiment [1] was 4.27; in experiment [3] (setting [6]), 5.02; in experiment [4], under 4.00; in experiment [5], 4.89. For the same molecule, in experiment [2], the pIC50 is 4.19.
The matching figures for `O=C1CN(/N=C/c2ccc([N+](=O)[O-])o2)C(=O)N1` [Nitrofurantoin, reference compound]: under 4.00, 4.57, under 4.00, 4.42 and under 3.60.
For `COc1ccc(C(=O)N/N=C/c2cccc3ccccc23)cc1` [Compound 33, 4-methoxy-N′-(naphthalen-1-ylmethylene)benzohydrazide] the same measures were under 4.00, under 4.00, under 4.00, under 4.00 and 3.89.
The matching figures for `O=C(N/N=C/c1ccc(O)c2ncccc12)c1cccc2ccccc12` [Compound 9, N′-((8-hydroxyquinolin-5-yl)methylene)-1-naphthohydrazide]: under 4.00, 4.25, under 4.00, under 4.00 and 5.68.
For `O=[N+]([O-])c1ccc(O)c2ncccc12` [Nitroxoline, reference compound], the pEC50 in experiment [1] was 5.60; in experiment [3] (setting [6]), 5.02; in experiment [4], 4.00; in experiment [5], 4.74. The molecule also gave a pIC50 in experiment [2] of 5.19.
For the molecule `COc1ccc(C(=O)N/N=C/c2ccc(O)c3ncccc23)cc1` [Compound 1, N′-((8-hydroxyquinolin-5-yl)methylene)-4-methoxybenzohydrazide], the pEC50 was under 4.00 in experiment [1], 4.06 in experiment [3] and under 4.00 in experiment [5].
For `COc1ccc(C(=O)N/N=C/c2ccc([N+](=O)[O-])o2)cc1` [Compound 20, 4-methoxy-N′-((5-nitrofuran-2-yl)methylene)benzohydrazide], the pEC50 in experiment [1] is under 4.00; in experiment [3] (setting [6]), 5.09; in experiment [4], under 4.00; in experiment [5], 4.66. This molecule had a pIC50 in experiment [2] of 3.97.
`O=C(N/N=C/c1ccc([N+](=O)[O-])o1)c1ccc(NS(=O)(=O)c2ccc(Br)cc2)cc1` [Compound 27, 4-bromo-N-(4-(2-((5-nitrofuran-2-yl)methylene)hydrazine-1-carbonyl)phenyl)benzenesulfonamide]: the pEC50 in experiment [1], in experiment [3] (setting [6]), in experiment [4] and in experiment [5] was under 4.00 in each case. For the same molecule, the pIC50 in experiment [2] is 4.23.
`COc1ccc(C(=O)N/N=C/c2cccc3ncccc23)cc1` [Compound 31, 4-methoxy-N′-(quinolin-5-ylmethylene)benzohydrazide]: the pEC50 in experiment [1], in experiment [3] (setting [6]), in experiment [4] and in experiment [5] was under 4.00 in each case. This molecule also gave a pIC50 in experiment [2] of under 3.60.
As to `O=C(N/N=C/c1ccc(O)c2ncccc12)c1ccc(O)cc1` [Compound 7, 4-hydroxy-N′-((8-hydroxyquinolin-5-yl)methylene)benzohydrazide], the pEC50 was 4.15 in experiment [1], 4.32 in experiment [3] (setting [6]), under 4.00 in experiment [4] and under 4.00 in experiment [5]. In experiment [2], this molecule showed a pIC50 of 5.05.
Regarding `O=C(N/N=C/c1ccc([N+](=O)[O-])o1)c1ccccc1` [Compound 18, N′-((5-nitrofuran-2-yl)methylene)benzohydrazide], the pEC50 is under 4.00 in experiment [1], 5.00 in experiment [3] (setting [6]), under 4.00 in experiment [4] and 4.51 in experiment [5]. The molecule also showed a pIC50 in experiment [2] of 4.00.
On to `O=C(N/N=C/c1ccc([N+](=O)[O-])o1)c1ccccc1Oc1ccccc1` [Compound 23, N′-((5-nitrofuran-2-yl)methylene)-2-phenoxybenzohydrazide], for which the pEC50 was under 4.00 in experiment [1], 5.28 in experiment [3] (setting [6]), under 4.00 in experiment [4] and 4.96 in experiment [5].
